# According to ChEMBL document CHEMBL4371084, “Design, synthesis and biological evaluation of novel HIV-1 protease inhibitors with pentacyclic triterpenoids as P2-ligands” (Bioorg Med Chem Lett, 2019):
# Biological target: Protease (Human immunodeficiency virus 1, UniProt Q9YQ12)
# Assay: Inhibition of HIV1 protease expressed in Escherichia coli using Arg-Glu (EDANS)-Ser-Gln-Asn-Tyr-Pro-Ile-Val-Gln-Lys(DABCYL)-Arg as substrate preincubated for 20 to 30 mins followed by substrate addition and measured for 10 mins by FRET assay
# Protease, sequence (Q9YQ12 whole entry): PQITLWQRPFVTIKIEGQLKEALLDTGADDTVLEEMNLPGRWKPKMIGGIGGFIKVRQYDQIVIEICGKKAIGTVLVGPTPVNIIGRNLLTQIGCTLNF
row,IC50,Compound
1,150 nM,CC(C)CN(C[C@@H](O)[C@H](Cc1ccccc1)NC(=O)[C@]12CCC(C)(C)C[C@H]1C1=CC[C@@H]3[C@@]4(C)CC[C@H](O)C(C)(C)[C@@H]4CC[C@@]3(C)[C@]1(C)CC2)S(=O)(=O)c1ccc([N+](=O)[O-])cc1
2,480 nM,COc1ccc(S(=O)(=O)N(CC(C)C)C[C@@H](O)[C@H](Cc2ccccc2)NC(=O)[C@]2(C)CC[C@H]3C4=CC(=O)[C@@H]5[C@@]6(C)CC[C@H](O)C(C)(C)[C@@H]6CC[C@@]5(C)[C@]4(C)CC[C@@]3(C)C2)cc1
3,460 nM,COc1ccc(S(=O)(=O)N(CC(C)C)C[C@@H](O)[C@H](Cc2ccccc2)NC(=O)[C@]23CC[C@@H](C)[C@H](C)[C@H]2C2=CC[C@@H]4[C@@]5(C)CC[C@H](O)C(C)(C)[C@@H]5CC[C@@]4(C)[C@]2(C)CC3)cc1
4,1850 nM,COc1ccc(S(=O)(=O)N(CC(C)C)C[C@@H](O)[C@H](Cc2ccccc2)NC(=O)[C@]2(C)CC[C@@H]3C4=CC(=O)[C@@H]5[C@@]6(C)CC[C@H](O)C(C)(C)[C@@H]6CC[C@@]5(C)[C@]4(C)CC[C@@]3(C)C2)cc1
5,170 nM,CC(C)CN(C[C@@H](O)[C@H](Cc1ccccc1)NC(=O)[C@]12CCC(C)(C)C[C@H]1C1=CC[C@@H]3[C@@]4(C)CC[C@H](O)C(C)(C)[C@@H]4CC[C@@]3(C)[C@]1(C)CC2)S(=O)(=O)c1ccc(N)cc1
6,240 nM,COc1ccc(S(=O)(=O)N(CC(C)C)C[C@@H](O)[C@H](Cc2ccccc2)NC(=O)[C@]23CCC(C)(C)C[C@H]2C2=CC[C@@H]4[C@@]5(C)CC[C@H](O)C(C)(C)[C@@H]5CC[C@@]4(C)[C@]2(C)CC3)cc1
7,370 nM,COc1ccc(S(=O)(=O)N(CC(C)C)C[C@@H](O)[C@H](Cc2ccccc2)NC(=O)[C@]23CC[C@@H](C)[C@H](C)[C@H]2C2=CC[C@@H]4[C@@]5(C)CCC(=O)C(C)(C)[C@@H]5CC[C@@]4(C)[C@]2(C)CC3)cc1
8,120 nM,CC(C)CN(C[C@@H](O)[C@H](Cc1ccccc1)NC(=O)[C@]12CC[C@@H](C)[C@H](C)[C@H]1C1=CC[C@@H]3[C@@]4(C)CC[C@H](O)C(C)(C)[C@@H]4CC[C@@]3(C)[C@]1(C)CC2)S(=O)(=O)c1ccc(N)cc1
9,210 nM,C=C(C)[C@@H]1CC[C@]2(C(=O)N[C@@H](Cc3ccccc3)[C@H](O)CN(CC(C)C)S(=O)(=O)c3ccc(OC)cc3)CC[C@]3(C)[C@H](CC[C@@H]4[C@@]5(C)CC[C@H](O)C(C)(C)[C@@H]5CC[C@]43C)[C@@H]12
10,400 nM,CC(C)CN(C[C@@H](O)[C@H](Cc1ccccc1)NC(=O)[C@]12CC[C@@H](C)[C@H](C)[C@H]1C1=CC[C@@H]3[C@@]4(C)CC[C@H](O)C(C)(C)[C@@H]4CC[C@@]3(C)[C@]1(C)CC2)S(=O)(=O)c1ccc([N+](=O)[O-])cc1

# Further lines, the molecule ahead of its results:
row,Compound,IC50
1,CC(C)CN(C[C@@H](O)[C@H](Cc1ccccc1)NC(=O)[C@]1(C)CC[C@H]2C3=CC(=O)[C@@H]4[C@@]5(C)CC[C@H](O)C(C)(C)[C@@H]5CC[C@@]4(C)[C@]3(C)CC[C@@]2(C)C1)S(=O)(=O)c1ccc(N)cc1,580 nM
2,C=C(C)[C@@H]1CC[C@]2(C(=O)N[C@@H](Cc3ccccc3)[C@H](O)CN(CC(C)C)S(=O)(=O)c3ccc(N)cc3)CC[C@]3(C)[C@H](CC[C@@H]4[C@@]5(C)CC[C@H](O)C(C)(C)[C@@H]5CC[C@]43C)[C@@H]12,610 nM
3,CC(C)CN(C[C@@H](O)[C@H](Cc1ccccc1)NC(=O)[C@]1(C)CC[C@@H]2C3=CC(=O)[C@@H]4[C@@]5(C)CC[C@H](O)C(C)(C)[C@@H]5CC[C@@]4(C)[C@]3(C)CC[C@@]2(C)C1)S(=O)(=O)c1ccc([N+](=O)[O-])cc1,1080 nM
4,CC(C)CN(C[C@@H](O)[C@H](Cc1ccccc1)NC(=O)[C@]1(C)CC[C@H]2C3=CC(=O)[C@@H]4[C@@]5(C)CC[C@H](O)C(C)(C)[C@@H]5CC[C@@]4(C)[C@]3(C)CC[C@@]2(C)C1)S(=O)(=O)c1ccc([N+](=O)[O-])cc1,500 nM
5,C=C(C)[C@@H]1CC[C@]2(C(=O)N[C@@H](Cc3ccccc3)[C@H](O)CN(CC(C)C)S(=O)(=O)c3ccc([N+](=O)[O-])cc3)CC[C@]3(C)[C@H](CC[C@@H]4[C@@]5(C)CC[C@H](O)C(C)(C)[C@@H]5CC[C@]43C)[C@@H]12,1050 nM
6,CC(C)CN(C[C@@H](O)[C@H](Cc1ccccc1)NC(=O)[C@]12CC[C@@H](C)[C@H](C)[C@H]1C1=CC[C@@H]3[C@@]4(C)C[C@@H](O)[C@H](O)[C@@](C)(CO)[C@@H]4CC[C@@]3(C)[C@]1(C)CC2)S(=O)(=O)c1ccc(N)cc1,300 nM
7,COc1ccc(S(=O)(=O)N(CC(C)C)C[C@@H](O)[C@H](Cc2ccccc2)NC(=O)[C@]23CC[C@@H](C)[C@H](C)[C@H]2C2=CC[C@@H]4[C@@]5(C)C[C@@H](O)[C@H](O)[C@@](C)(CO)[C@@H]5CC[C@@]4(C)[C@]2(C)CC3)cc1,150 nM
8,CC(C)CN(C[C@@H](O)[C@H](Cc1ccccc1)NC(=O)[C@]12CC[C@@H](C)[C@H](C)[C@H]1C1=CC[C@@H]3[C@@]4(C)CCC(=O)C(C)(C)[C@@H]4CC[C@@]3(C)[C@]1(C)CC2)S(=O)(=O)c1ccc(N)cc1,2370 nM
9,CC(C)CN(C[C@@H](O)[C@H](Cc1ccccc1)NC(=O)[C@]1(C)CC[C@@H]2C3=CC(=O)[C@@H]4[C@@]5(C)CC[C@H](O)C(C)(C)[C@@H]5CC[C@@]4(C)[C@]3(C)CC[C@@]2(C)C1)S(=O)(=O)c1ccc(N)cc1,490 nM
10,CC(C)CN(C[C@@H](O)[C@H](Cc1ccccc1)NC(=O)[C@]12CC[C@@H](C)[C@H](C)[C@H]1C1=CC[C@@H]3[C@@]4(C)CCC(=O)C(C)(C)[C@@H]4CC[C@@]3(C)[C@]1(C)CC2)S(=O)(=O)c1ccc([N+](=O)[O-])cc1,220 nM
11,CC(C)CN(C[C@@H](O)[C@H](Cc1ccccc1)NC(=O)[C@]12CC[C@@H](C)[C@H](C)[C@H]1C1=CC[C@@H]3[C@@]4(C)C[C@@H](O)[C@H](O)[C@@](C)(CO)[C@@H]4CC[C@@]3(C)[C@]1(C)CC2)S(=O)(=O)c1ccc([N+](=O)[O-])cc1,170 nM

# Biological target: Protease (Human immunodeficiency virus 1) (UniProt Q9YQ12)
# Assay: Potency index, ratio of ursolic acid IC50 to test compound IC50 for HIV1 protease expressed in Escherichia coli
# Protease (Human immunodeficiency virus 1), sequence (Q9YQ12 as listed by the source): as the sequence (Q9YQ12 whole entry) above
row,Compound,Ratio IC50
1,CC(C)CN(C[C@@H](O)[C@H](Cc1ccccc1)NC(=O)[C@]12CC[C@@H](C)[C@H](C)[C@H]1C1=CC[C@@H]3[C@@]4(C)CC[C@H](O)C(C)(C)[C@@H]4CC[C@@]3(C)[C@]1(C)CC2)S(=O)(=O)c1ccc(N)cc1,67
